Reference: ChEMBL document CHEMBL4732090, “Preparation of new 1,3-dibenzyl tetrahydropyridinylidene ammonium salts and their antimicrobial and anticellular activities” (Eur J Med Chem, 2021)

Columns and labels:
[1] = system: Trypanosoma brucei rhodesiense; test: Trypanocidal activity against Trypanosoma brucei rhodesiense STIB900 incubated for 70 hrs by Alamar blue assay; format: functional, organism-based; conditions: STIB900, 70 h
Escherichia coli = test: Antibacterial activity against Escherichia coli ATCC 25922 assessed as diameter of inhibition zone at 10 mg/ml by disk diffusion assay; format: functional; conditions: read-out: DIZ
Pseudomonas aeruginosa = test: Antibacterial activity against Pseudomonas aeruginosa ATCC 27853 assessed as diameter of inhibition zone at 10 mg/ml by disk diffusion assay; format: functional; conditions: read-out: DIZ
Staphylococcus aureus = test: Antibacterial activity against Staphylococcus aureus ATCC 29213 assessed as diameter of inhibition zone at 10 mg/ml by disk diffusion assay; format: functional; conditions: read-out: DIZ
[2] = system: Staphylococcus epidermidis; test: Antibacterial activity against Staphylococcus epidermis ATCC 12228 assessed as diameter of inhibition zone at 10 mg/ml by disk diffusion assay; format: functional; conditions: read-out: DIZ
[3] = Selectivity index, ratio of IC50 for rat L6 cells to IC50 for Trypanosoma brucei rhodesiense STIB900; format: toxicity; conditions: read-out: Ratio IC50
Plasmodium falciparum [4] = test: Antiplasmodial activity against Plasmodium falciparum NF54 erythrocytic stages assessed as reduction in [3H]hypoxanthine incorporation measured after 48 hrs by liquid scintillation counting method; format: functional, organism-based
L6 = test: Cytotoxicity against rat L6 cells after 70 hrs by Alamar blue assay; format: cell-based; conditions: L6, 70 h, read-out: IC50
Candida albicans = test: Antifungal activity against Candida albicans ATCC 90028 assessed as diameter of inhibition zone at 10 mg/ml by disk diffusion assay; format: functional; conditions: read-out: DIZ
[5] = Selectivity index, ratio of IC50 for rat L6 cells to IC50 for Plasmodium falciparum NF54; format: toxicity; conditions: read-out: Ratio IC50
[6] = Selectivity index, ratio of IC50 for rat L6 cells to IC50 for chloroquine and pyrimethamine resistant Plasmodium falciparum K1; format: toxicity; conditions: read-out: Ratio IC50
Plasmodium falciparum [7] = test: Antiplasmodial activity against chloroquine and pyrimethamine resistant Plasmodium falciparum K1 strain; format: functional, organism-based
HCT-116 = test: Cytotoxicity against human HCT-116 cells assessed as inhibition of cell growth at 50 uM after 72 hrs by XTT assay relative to control; format: functional
U-251 = test: Cytotoxicity against human U-251 cells assessed as inhibition of cell growth at 50 uM after 72 hrs by XTT assay relative to control; format: functional

SMILES	IC50 [1] [nM]	zone of inhibition at 10000 µg/mL (Escherichia coli) [mm]	zone of inhibition at 10000 µg/mL (Pseudomonas aeruginosa) [mm]	zone of inhibition at 10000 µg/mL (Staphylococcus aureus) [mm]	zone of inhibition at 10000 µg/mL [2] [mm]	selectivity ratio [3]	IC50 (Plasmodium falciparum [4]) [nM]	IC50 (L6) [nM]	zone of inhibition at 10000 µg/mL (Candida albicans) [mm]	selectivity ratio [5]	selectivity ratio [6]	IC50 (Plasmodium falciparum [7]) [nM]	inhibition at 50 µM (HCT-116) [%]	inhibition at 50 µM (U-251) [%]
CC1(C)C(Cc2ccccc2C(F)(F)F)C(=[N+]2CCCC2)C=CN1Cc1ccccc1 (racemic)	100	13	0	23	22	776	85	77600	10	912	–	–	–	–
COc1cc(Cc2cnc(N)nc2N)cc(OC)c1OC [TRIMETHOPRIM]	–	–	0	22	–	–	–	–	0	–	–	–	–	–
CC1(C)C(Cc2ccccc2)C(=[N+]2CCCC2)C=CN1Cc1ccccc1 (racemic)	130	12	0	21	25	376	32	48800	0	1530	888	55	–	–
CC1(C)C(Cc2c(Cl)cccc2Cl)C(=[N+]2CCCC2)C=CN1Cc1ccccc1 (racemic)	63	10	7	23	26	238	31	15000	10	483	–	–	–	–
CC1(C)C(Cc2ccc(C(F)(F)F)cc2)C(=[N+]2CCCC2)C=CN1Cc1ccc(C(F)(F)F)cc1 (racemic)	420	15	7	22	31	62.9	8.3	26400	25	3180	8520	3.1	100	100
CC1(C)C(Cc2ccc(Cl)cc2)C(=[N+]2CCCC2)C=CN1Cc1ccc(Cl)cc1 (racemic)	170	15	7	21	34	73.9	1.4	12600	20	8980	7860	1.6	100	100
CC1(C)C(Cc2ccc(C#N)cc2)C(=[N+]2CCCC2)C=CN1Cc1ccccc1 (centres undefined)	11000	8	5	14	12	> 19.6	17	> 215000	0	> 12700	> 1790	120	–	–
CC1(C)C(Cc2ccc(Cl)cc2Cl)C(=[N+]2CCCC2)C=CN1Cc1ccccc1 (racemic)	110	12	0	22	26	237	18	26100	15	1450	–	–	–	–
CC(C)(C)c1ccc(CC2C(=[N+]3CCCC3)C=CN(Cc3ccccc3)C2(C)C)cc1 (racemic)	20	15	0	22	24	47	30	940	22	31.3	–	–	100	100
CC1(C)C(Cc2ccc(Cl)cc2)C(=[N+]2CCCC2)C=CN1Cc1ccccc1 (racemic)	500	8	0	24	21	179	17	89500	11	5260	–	–	–	–
CC1(C)C(Cc2ccc([N+](=O)[O-])cc2)C(=[N+]2CCCC2)C=CN1Cc1ccccc1 (racemic)	5450	11	0	15	18	37.9	43	206000	0	4800	–	–	–	–
CC1(C)C(Cc2ccccc2)C(=[N+]2CCCCC2)C=CN1Cc1ccccc1 (racemic)	44	10	0	22	28	558	15	24600	0	1640	1024	24	–	–
